Assay results as given in patent publication EP4691482A1, “LONG-ACTING CALCITONIN ANALOG” (Chengdu Aoda Biotechnology Co., Ltd., priority 2023, dated 2024).

molecular target: T1, calcitonin receptors (CTR) (Homo sapiens, UniProt P30988); assay: cAMP determination (HTRF, cAMP Dynamic 2 Kit) in cAMP Hunter HEK293-CT-R Gs cell line; assay type: cell-based; details: HEK293 cell line stably expressing CT-R; intracellular cAMP, HTRF
T1 construct: expressed in transfected cells; host or cells: cAMP Hunter HEK293-CT-R Gs cell line (HEK293, stably transfected)
T1 sequence (P30988 25-474): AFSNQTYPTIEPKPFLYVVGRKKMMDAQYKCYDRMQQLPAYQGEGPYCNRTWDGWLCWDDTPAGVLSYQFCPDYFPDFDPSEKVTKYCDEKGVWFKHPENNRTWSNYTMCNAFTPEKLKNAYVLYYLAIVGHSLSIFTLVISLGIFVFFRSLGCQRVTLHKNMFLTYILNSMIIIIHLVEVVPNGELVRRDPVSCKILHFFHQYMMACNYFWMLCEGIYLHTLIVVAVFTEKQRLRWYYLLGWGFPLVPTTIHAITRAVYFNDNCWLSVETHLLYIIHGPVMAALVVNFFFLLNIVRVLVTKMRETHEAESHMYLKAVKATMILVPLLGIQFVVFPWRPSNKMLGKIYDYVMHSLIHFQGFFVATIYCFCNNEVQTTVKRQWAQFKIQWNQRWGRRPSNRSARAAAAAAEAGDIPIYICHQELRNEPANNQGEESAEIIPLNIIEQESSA
Excerpt: Upon activation by a ligand, Gas-coupled GPCRs can upregulate intracellular cAMP level, and cAMP, as a second messenger, can mediate a series of cellular responses. The cAMP Hunter HEK293-CT-R Gs cell line, which overexpresses Gas-coupled calcitonin receptors (CTR), was used. The binding of calcitonin (or an analog thereof) to the overexpressed CTR upregulates intracellular cAMP level. The amount of intracellular cAMP produced after activation by the calcitonin (or an analog thereof) was detected using a cAMP Dynamic 2 Kit to evaluate the biological activity of the calcitonin (or an analog thereof). HEK293 cell line stably expressing CT-R was used. Stably transfected cells were stimulated with various concentrations of agonists. The time-resolved fluorescence resonance energy signal from the cells after stimulation with different doses was measured using HTRF technology, from which the biological activity of the agonist was subsequently calculated.

Compound	EC50 [pM]
CC(C)C[C@H](NC(=O)[C@H](CCCCN)NC(=O)CNC(=O)[C@H](CC(C)C)NC(=O)[C@@H](NC(=O)[C@@H]1CSSC[C@H](N)C(=O)N[C@@H](CO)C(=O)N[C@@H](CC(N)=O)C(=O)N[C@@H](CC(C)C)C(=O)N[C@@H](CO)C(=O)N[C@@H]([C@@H](C)O)C(=O)N1)C(C)C)C(=O)N[C@@H](CO)C(=O)N[C@@H](CCC(N)=O)C(=O)N[C@@H](CCC(=O)O)C(=O)N[C@@H](CC(C)C)C(=O)N[C@@H](Cc1c[nH]cn1)C(=O)N[C@@H](CCCCNC(=O)CNC(=O)[C@H](CO)NC(=O)CNC(=O)[C@H](CO)NC(=O)CC[C@H](NC(=O)CCCCCCCCCCCCCCCCCCC(=O)O)C(=O)O)C(=O)N[C@@H](CC(C)C)C(=O)N[C@@H](CCC(N)=O)C(=O)N[C@H](C(=O)N[C@@H](Cc1ccc(O)cc1)C(=O)N1CCC[C@H]1C(=O)N[C@@H](CCCNC(=N)N)C(=O)N[C@H](C(=O)N[C@@H](CC(N)=O)C(=O)N[C@H](C(=O)NCC(=O)N[C@@H](CO)C(=O)NCC(=O)N[C@H](C(=O)N1CCC[C@H]1C(N)=O)[C@@H](C)O)[C@@H](C)O)[C@@H](C)O)[C@@H](C)O [Compound 7]	4.4
CC(C)C[C@H](NC(=O)[C@H](CCCCN)NC(=O)CNC(=O)[C@H](CC(C)C)NC(=O)[C@@H](NC(=O)[C@@H]1CSSC[C@H](N)C(=O)N[C@@H](CO)C(=O)N[C@@H](CC(N)=O)C(=O)N[C@@H](CC(C)C)C(=O)N[C@@H](CO)C(=O)N[C@@H]([C@@H](C)O)C(=O)N1)C(C)C)C(=O)N[C@@H](CO)C(=O)N[C@@H](CCC(N)=O)C(=O)N[C@@H](CCC(=O)O)C(=O)N[C@@H](CC(C)C)C(=O)N[C@@H](Cc1c[nH]cn1)C(=O)N[C@@H](CCCCNC(=O)COCCOCCNC(=O)COCCOCCNC(=O)CC[C@H](NC(=O)CCCCCCCCCCCCCCCCC(=O)O)C(=O)O)C(=O)N[C@@H](CC(C)C)C(=O)N[C@@H](CCC(N)=O)C(=O)N[C@H](C(=O)N[C@@H](Cc1ccc(O)cc1)C(=O)N1CCC[C@H]1C(=O)N[C@@H](CCCNC(=N)N)C(=O)N[C@H](C(=O)N[C@@H](CC(N)=O)C(=O)N[C@H](C(=O)NCC(=O)N[C@@H](CO)C(=O)NCC(=O)N[C@H](C(=O)N1CCC[C@H]1C(N)=O)[C@@H](C)O)[C@@H](C)O)[C@@H](C)O)[C@@H](C)O [Compound 19, Cys-Ser-Asn-Leu-Ser-Thr-Cys-Val-Leu-Gly-Lys-Leu-Ser-Gln-Glu-Leu-His-Lys(AEEA-AEEA-γGlu-octadecanedioic acid)-Leu-Gln-Thr-Tyr-P ro-Arg-Thr-Asn-Thr-Gly-Ser-Gly-Thr-Pro-NH2]	3.7
CC(C)C[C@H](NC(=O)[C@H](CCCCN)NC(=O)CNC(=O)[C@H](CC(C)C)NC(=O)[C@@H](NC(=O)[C@@H]1CSSC[C@H](N)C(=O)N[C@@H](CO)C(=O)N[C@@H](CC(N)=O)C(=O)N[C@@H](CC(C)C)C(=O)N[C@@H](CO)C(=O)N[C@@H]([C@@H](C)O)C(=O)N1)C(C)C)C(=O)N[C@@H](CO)C(=O)N[C@@H](CCC(N)=O)C(=O)N[C@@H](CCC(=O)O)C(=O)N[C@@H](CC(C)C)C(=O)N[C@@H](Cc1c[nH]cn1)C(=O)N[C@@H](CCCCNC(=O)CNC(=O)CNC(=O)[C@H](CO)NC(=O)CNC(=O)[C@H](CO)NC(=O)CNC(=O)[C@H](CO)NC(=O)CNC(=O)CC[C@H](NC(=O)CCCCCCCCCCCCCCCCCCC(=O)O)C(=O)O)C(=O)N[C@@H](CC(C)C)C(=O)N[C@@H](CCC(N)=O)C(=O)N[C@H](C(=O)N[C@@H](Cc1ccc(O)cc1)C(=O)N1CCC[C@H]1C(=O)N[C@@H](CCCNC(=N)N)C(=O)N[C@H](C(=O)N[C@@H](CC(N)=O)C(=O)N[C@H](C(=O)NCC(=O)N[C@@H](CO)C(=O)NCC(=O)N[C@H](C(=O)N1CCC[C@H]1C(N)=O)[C@@H](C)O)[C@@H](C)O)[C@@H](C)O)[C@@H](C)O [Compound 9]	4.1

Results, then the compound that gave them:

EC50 [pM]	Compound
3.5	CC(C)C[C@H](NC(=O)[C@H](CCCCN)NC(=O)CNC(=O)[C@H](CC(C)C)NC(=O)[C@@H](NC(=O)[C@@H]1CSSC[C@H](N)C(=O)N[C@@H](CO)C(=O)N[C@@H](CC(N)=O)C(=O)N[C@@H](CC(C)C)C(=O)N[C@@H](CO)C(=O)N[C@@H]([C@@H](C)O)C(=O)N1)C(C)C)C(=O)N[C@@H](CO)C(=O)N[C@@H](CCC(N)=O)C(=O)N[C@@H](CCC(=O)O)C(=O)N[C@@H](CC(C)C)C(=O)N[C@@H](Cc1c[nH]cn1)C(=O)N[C@@H](CCCCNC(=O)COCCOCCNC(=O)COCCOCCNC(=O)CC[C@H](NC(=O)CCCCCCCCCCCCCCCCCCCCC(=O)O)C(=O)O)C(=O)N[C@@H](CC(C)C)C(=O)N[C@@H](CCC(N)=O)C(=O)N[C@H](C(=O)N[C@@H](Cc1ccc(O)cc1)C(=O)N1CCC[C@H]1C(=O)N[C@@H](CCCNC(=N)N)C(=O)N[C@H](C(=O)N[C@@H](CC(N)=O)C(=O)N[C@H](C(=O)NCC(=O)N[C@@H](CO)C(=O)NCC(=O)N[C@H](C(=O)N1CCC[C@H]1C(N)=O)[C@@H](C)O)[C@@H](C)O)[C@@H](C)O)[C@@H](C)O [Compound 21, Cys-Ser-Asn-Leu-Ser-Thr-Cys-Val-Leu-Gly-Lys-Leu-Ser-Gln-Glu-Leu-His-Lys(AEEA-AEEA-γGlu-docosanedioic acid)-Leu-Gln-Thr-Tyr-Pro -Arg-Thr-Asn-Thr-Gly-Ser-Gly-Thr-Pro-NH2]
3.5	CC(C)C[C@H](NC(=O)[C@H](CCCCN)NC(=O)CNC(=O)[C@H](CC(C)C)NC(=O)[C@@H](NC(=O)[C@@H]1CSSC[C@H](N)C(=O)N[C@@H](CO)C(=O)N[C@@H](CC(N)=O)C(=O)N[C@@H](CC(C)C)C(=O)N[C@@H](CO)C(=O)N[C@@H]([C@@H](C)O)C(=O)N1)C(C)C)C(=O)N[C@@H](CO)C(=O)N[C@@H](CCC(N)=O)C(=O)N[C@@H](CCC(=O)O)C(=O)N[C@@H](CC(C)C)C(=O)N[C@@H](Cc1c[nH]cn1)C(=O)N[C@@H](CCCCNC(=O)CNC(=O)CNC(=O)CNC(=O)CNC(=O)CC[C@H](NC(=O)CCCCCCCCCCCCCCCCCCC(=O)O)C(=O)O)C(=O)N[C@@H](CC(C)C)C(=O)N[C@@H](CCC(N)=O)C(=O)N[C@H](C(=O)N[C@@H](Cc1ccc(O)cc1)C(=O)N1CCC[C@H]1C(=O)N[C@@H](CCCNC(=N)N)C(=O)N[C@H](C(=O)N[C@@H](CC(N)=O)C(=O)N[C@H](C(=O)NCC(=O)N[C@@H](CO)C(=O)NCC(=O)N[C@H](C(=O)N1CCC[C@H]1C(N)=O)[C@@H](C)O)[C@@H](C)O)[C@@H](C)O)[C@@H](C)O [Compound 13]

same assay, conditions: relative to Salmon Calcitonin = 100.0; HEK293 CT-R cAMP

Relative Activity% [%]	Compound
316.7	CC(C)C[C@H](NC(=O)[C@H](CCCCN)NC(=O)CNC(=O)[C@H](CC(C)C)NC(=O)[C@@H](NC(=O)[C@@H]1CSSC[C@H](N)C(=O)N[C@@H](CO)C(=O)N[C@@H](CC(N)=O)C(=O)N[C@@H](CC(C)C)C(=O)N[C@@H](CO)C(=O)N[C@@H]([C@@H](C)O)C(=O)N1)C(C)C)C(=O)N[C@@H](CO)C(=O)N[C@@H](CCC(N)=O)C(=O)N[C@@H](CCC(=O)O)C(=O)N[C@@H](CC(C)C)C(=O)N[C@@H](Cc1c[nH]cn1)C(=O)N[C@@H](CCCCNC(=O)COCCOCCOCCOCCNC(=O)CC[C@H](NC(=O)CCCCCCCCCCCCCCCCCCC(=O)O)C(=O)O)C(=O)N[C@@H](CC(C)C)C(=O)N[C@@H](CCC(N)=O)C(=O)N[C@H](C(=O)N[C@@H](Cc1ccc(O)cc1)C(=O)N1CCC[C@H]1C(=O)N[C@@H](CCCNC(=N)N)C(=O)N[C@H](C(=O)N[C@@H](CC(N)=O)C(=O)N[C@H](C(=O)NCC(=O)N[C@@H](CO)C(=O)NCC(=O)N[C@H](C(=O)N1CCC[C@H]1C(N)=O)[C@@H](C)O)[C@@H](C)O)[C@@H](C)O)[C@@H](C)O [Compound 4, Cys-Ser-Asn-Leu-Ser-Thr-Cys-Val-Leu-Gly-Lys-Leu-Ser-Gln-Glu-Leu-His-Lys(PEG4CH2CO-yGlu-eicosanedioic acid)-Leu-Gln-Thr-Tyr-Pro-Arg-Thr-Asn-Thr-Gly-Ser-Gly-Thr-Pro-NH2]
